# Experimental data: US9944607B2, “Thiohydantoin derivatives and uses thereof” (Whitehead Institute for Biomedical Research, priority 2012, dated 2018)
# Tested on: mitochondrial membrane potential of S. cerevisiae
# Assay: Secondary mitochondrial disruption assay (JC-1 dye, flow cytometry)
# Assay type: cell-based, Saccharomyces cerevisiae
# Conditions: living S. cerevisiae treated with 1 μM compound; AIDs 624062, 624068
# Method: Procedures • Use a Thermo Combi nL to dispense 20 μL/well of assay media into all wells. • Add 2 μL of Amphotericin B to control wells. • Pin 100 nL of test compound from compound plates into assay plates using a CyBi-Well pin tool. • Dispense 20 μL/well of culture into the assay media in all wells. • Incubate the plates in a humidified (90% humidity) Liconic incubator at 37° C. without agitation for 48 hours. • Shake plates briefly. • Read OD600 of wells on a standard plate reader as measure of relative fungal growth. Envision (Perkin Elmer) plate reader settings: Ex Photometric 600, Top read. 4.5. Secondary Mitochondrial Disruption Assay (AID No. 624062 and 624068)
# The fluorescent dye JC-1 was used to quantify the ability of compounds to disrupt the mitochondrial membrane potential of fungi. Mitochondrial membrane depolarization is indicated by a decrease in the yellow/green fluorescence intensity ratio. This is a non-gating, binning assay that establishes whether inhibition of fungal growth in glycerol results from direct compromise of mitochondrial function or alternative components of fungal respiratory metabolism. Probes that disrupt mitochondrial function as well as those that perturb other metabolic components are desirable. […]
# Additionally, direct impairment of mitochondrial function in C. glabrata and S. cerevisiae was assessed using a fluorescence assay.
smiles,measurement,value
"CCOC(=O)N1C(=O)C2(CCCCC2)N(c2ccc(F)cc2)C1=S [CID 56604860, Ethyl 1-(4-fluorophenyl)-4-oxo-2-thioxo-1,3-diazaspiro[4.5]decane-3-carboxylate]",Depolarization of the mitochondrial membrane (JC-1 dye),depolarization of the mitochondrial membrane does not occur
